{
  "source": "paper PMC8301783",
  "about": "“Pitfalls of NMDA Receptor Modulation by Neuroactive Steroids. The Effect of Positive and Negative Modulation of NMDA Receptors in an Animal Model of Schizophrenia” (Biomolecules, 2021)",
  "target": "T1, GABAA receptor (GABAAR)",
  "T1 construct": "native receptors in rat cerebral cortex membrane homogenates",
  "assay": "[…]TBPS radioligand displacement, rat cortex membranes",
  "type": "binding",
  "data": [
    {"smiles": "CC(=O)[C@H]1CC[C@H]2[C@@H]3CC[C@@H]4C[C@H](OC(=O)[C@@H](N)CCC(=O)O)CC[C@]4(C)[C@H]3CC[C@]12C", "note": "[PA-Glu, pregnanolone glutamate]", "values": [
      {"measurement": "IC50", "result": 7.5, "unit": "µM"}
    ]}
  ]
}
